Results taken from ChEMBL document CHEMBL3400134, “Synthesis and biological evaluation of fluconazole analogs with triazole-modified scaffold as potent antifungal agents” (Bioorg Med Chem, 2015).
Converted amounts (≈) assume the structure as drawn.

Columns and labels:
Candida albicans [1] = assay: Antifungal activity against Candida albicans ATCC 18804 after 24 to 168 hrs by broth microdilution assay; assay type: functional
Candida albicans [2] = assay: Antifungal activity against Candida albicans PTCC 6027 after 24 to 168 hrs by broth microdilution assay; assay type: functional
Nakaseomyces glabratus [3] = assay: Antifungal activity against Candida glabrata IFRC 339 after 24 to 168 hrs by broth microdilution assay; assay type: functional
Cryptococcus neoformans = assay: Antifungal activity against Cryptococcus neoformans IFRC 192 after 24 to 168 hrs by broth microdilution assay; assay type: functional
Aspergillus fumigatus = assay: Antifungal activity against Aspergillus fumigatus ATCC 1028 after 24 to 168 hrs by broth microdilution assay; assay type: functional
Candida albicans [4] = assay: Ratio of fluconazole MIC to compound MIC for Candida albicans ATCC 18804; assay type: functional
Candida albicans [5] = assay: Ratio of fluconazole MIC to compound MIC for Candida albicans PTCC 6027; assay type: functional
Nakaseomyces glabratus [6] = assay: Ratio of fluconazole MIC to compound MIC for Candida glabrata IFRC 339; assay type: functional
HepG2 = assay: Cytotoxicity against human HepG2 cells after 2 days by MTT assay; assay type: cell-based; settings: HepG2, 48 h
[7] = Stability of the compound in deuterated DMSO at RT after 2 weeks by 1H-NMR spectroscopy; assay type: physicochemical; settings: 336 h
[8] = Stability of the compound in PBS at 0.15 to 6 ug/ml at pH 5.8 to 8 at RT after 2 weeks by UV spectrophotometry; assay type: physicochemical; settings: buffer, pH 5.8, 336 h

SMILES	MIC (Candida albicans [1]) [µg/mL]	MIC (Candida albicans [2]) [µg/mL]	MIC (Nakaseomyces glabratus [3]) [µg/mL]	MIC (Cryptococcus neoformans) [µg/mL]	MIC (Aspergillus fumigatus) [µg/mL]	Ratio (Candida albicans [4])	Ratio (Candida albicans [5])	Ratio (Nakaseomyces glabratus [6])	IC50 (HepG2) [µg/mL]	Stability [7]	Stability [8]
OC(CSc1nnc(-c2ccccc2)[nH]1)(Cn1cncn1)c1ccc(F)cc1F (centres undefined)	0.5 (≈ 1.21 µM)	8 (≈ 19.3 µM)	128 (≈ 309 µM)	> 128	> 128	–	–	–	–	–	–
Oc1ccc(-c2nnc(SCC(O)(Cn3cncn3)c3ccc(F)cc3F)[nH]2)cc1 (centres undefined)	> 128	> 128	128 (≈ 297 µM)	> 128	> 128	–	–	–	–	–	–
Cc1ccc(-c2nnc(SCC(O)(Cn3cncn3)c3ccc(F)cc3F)[nH]2)cc1 (centres undefined)	2 (≈ 4.67 µM)	2 (≈ 4.67 µM)	128 (≈ 299 µM)	> 128	> 128	–	–	–	–	–	–
COc1ccc(-c2nnc(SCC(O)(Cn3cncn3)c3ccc(F)cc3F)[nH]2)cc1 (centres undefined)	2 (≈ 4.5 µM)	4 (≈ 9 µM)	4 (≈ 9 µM)	> 128	> 128	–	–	–	–	–	–
OC(CSc1nnc(-c2ccc(F)cc2)[nH]1)(Cn1cncn1)c1ccc(F)cc1F (centres undefined)	8 (≈ 18.5 µM)	4 (≈ 9.25 µM)	4 (≈ 9.25 µM)	> 128	> 128	–	–	–	–	–	–
OC(CSc1nnc(-c2ccc(Cl)cc2)[nH]1)(Cn1cncn1)c1ccc(F)cc1F (centres undefined)	0.5 (≈ 1.11 µM)	1 (≈ 2.23 µM)	128 (≈ 285 µM)	> 128	> 128	–	–	–	–	–	–
OC(CSc1nnc(-c2cccc(Br)c2)[nH]1)(Cn1cncn1)c1ccc(F)cc1F (centres undefined)	8 (≈ 16.2 µM)	8 (≈ 16.2 µM)	128 (≈ 259 µM)	> 128	> 128	–	–	–	–	–	–
OC(CSc1nnc(-c2ccc(Cl)cc2Cl)[nH]1)(Cn1cncn1)c1ccc(F)cc1F (centres undefined)	0.5 (≈ 1.03 µM)	0.03 (≈ 0.0621 µM)	0.25 (≈ 0.517 µM)	64 (≈ 132 µM)	> 128	8	4	4	> 250	Stable	Stable
OC(CSc1nnc(-c2ccncc2)[nH]1)(Cn1cncn1)c1ccc(F)cc1F (centres undefined)	64 (≈ 154 µM)	64 (≈ 154 µM)	128 (≈ 308 µM)	> 128	> 128	–	–	–	–	–	–
OC(CSc1nnc(-c2ccccc2)[nH]1)(Cn1cncn1)c1ccc(Cl)cc1Cl (centres undefined)	4 (≈ 8.94 µM)	1 (≈ 2.24 µM)	128 (≈ 286 µM)	> 128	> 128	–	–	–	–	–	–
Oc1ccc(-c2nnc(SCC(O)(Cn3cncn3)c3ccc(Cl)cc3Cl)[nH]2)cc1 (centres undefined)	16 (≈ 34.5 µM)	16 (≈ 34.5 µM)	128 (≈ 276 µM)	128 (≈ 276 µM)	> 128	–	–	–	–	–	–
Cc1ccc(-c2nnc(SCC(O)(Cn3cncn3)c3ccc(Cl)cc3Cl)[nH]2)cc1 (centres undefined)	1 (≈ 2.17 µM)	0.125 (≈ 0.271 µM)	128 (≈ 277 µM)	128 (≈ 277 µM)	> 128	–	–	–	–	–	–
COc1ccc(-c2nnc(SCC(O)(Cn3cncn3)c3ccc(Cl)cc3Cl)[nH]2)cc1 (centres undefined)	32 (≈ 67 µM)	> 128	128 (≈ 268 µM)	> 128	> 128	–	–	–	–	–	–
OC(CSc1nnc(-c2ccc(F)cc2)[nH]1)(Cn1cncn1)c1ccc(Cl)cc1Cl (centres undefined)	0.5 (≈ 1.07 µM)	0.125 (≈ 0.269 µM)	128 (≈ 275 µM)	> 128	> 128	–	–	–	–	–	–
OC(CSc1nnc(-c2ccc(Cl)cc2)[nH]1)(Cn1cncn1)c1ccc(Cl)cc1Cl (centres undefined)	0.5 (≈ 1.04 µM)	0.125 (≈ 0.259 µM)	128 (≈ 266 µM)	> 128	> 128	–	–	–	–	–	–
OC(CSc1nnc(-c2cccc(Br)c2)[nH]1)(Cn1cncn1)c1ccc(Cl)cc1Cl (centres undefined)	0.25 (≈ 0.475 µM)	0.06 (≈ 0.114 µM)	128 (≈ 243 µM)	4 (≈ 7.6 µM)	> 128	8	–	–	–	–	–
OC(CSc1nnc(-c2ccc(Cl)cc2Cl)[nH]1)(Cn1cncn1)c1ccc(Cl)cc1Cl (centres undefined)	0.5 (≈ 0.969 µM)	< 0.01	0.25 (≈ 0.484 µM)	32 (≈ 62 µM)	> 128	25	4	4	97.1 (≈ 188 µM)	–	–
OC(CSc1nnc(-c2ccncc2)[nH]1)(Cn1cncn1)c1ccc(Cl)cc1Cl (centres undefined)	8 (≈ 17.8 µM)	4 (≈ 8.92 µM)	128 (≈ 285 µM)	> 128	> 128	–	–	–	–	–	–
Nn1c(SCC(O)(Cn2cncn2)c2ccc(F)cc2F)nnc1-c1ccc(Cl)cc1Cl (centres undefined)	–	16 (≈ 32.1 µM)	–	–	–	–	–	–	–	–	–
Nn1c(SCC(O)(Cn2cncn2)c2ccc(Cl)cc2Cl)nnc1-c1ccc(Cl)cc1Cl (centres undefined)	–	8 (≈ 15.1 µM)	–	–	–	–	–	–	–	–	–
OC(Cn1cncn1)(Cn1cncn1)c1ccc(F)cc1F [FLUCONAZOLE]	2 (≈ 6.53 µM)	0.25 (≈ 0.816 µM)	64 (≈ 209 µM)	4 (≈ 13.1 µM)	8 (≈ 26.1 µM)	–	–	–	> 250	–	–
